Data taken from EP0946179B1 (ELI LILLY AND COMPANY, priority 1996, dated 1997).

Key:
5-HT1C receptor = biological target: T1, 5-HT1C receptor (Homo sapiens, UniProt P28335); test: pharmacological studies, 5-HT1C receptor activity
T1 sequence (P28335 33-458): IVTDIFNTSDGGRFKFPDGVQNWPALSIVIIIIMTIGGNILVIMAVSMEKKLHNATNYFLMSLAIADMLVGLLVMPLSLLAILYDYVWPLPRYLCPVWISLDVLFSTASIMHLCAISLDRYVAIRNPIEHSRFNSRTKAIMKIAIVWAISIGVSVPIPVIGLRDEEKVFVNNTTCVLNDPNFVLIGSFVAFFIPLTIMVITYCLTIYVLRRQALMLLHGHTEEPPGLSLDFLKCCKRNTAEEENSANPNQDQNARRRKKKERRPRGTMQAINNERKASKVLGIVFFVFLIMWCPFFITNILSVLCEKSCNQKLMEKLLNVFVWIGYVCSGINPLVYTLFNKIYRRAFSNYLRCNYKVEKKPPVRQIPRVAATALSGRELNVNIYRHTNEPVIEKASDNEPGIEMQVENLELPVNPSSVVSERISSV

[1] = test system: muscarinic cholinergic receptor; test: pharmacological studies, muscarinic receptor activity
[2] = double-blind multicenter clinical trial, olanzapine versus placebo; assay type: in vivo; details: patients randomized to olanzapine or placebo
Source text: A double-blind multicenter clinical trial was designed to assess the safety and efficacy of olanzapine. Patients were randomized to olanzapine or placebo.

Cc1cc2c(s1)Nc1ccccc1N=C2N1CCN(C)CC1 [olanzapine, 2-methyl-4-(4-methyl-1-piperazinyl)-10H-thieno[2,3-b][1,5] benzodiazepine]
activity at the 5-HT1C receptor (5-HT1C receptor): active
muscarinic cholinergic receptor activity [1]: has muscarinic cholinergic receptor activity
usefulness for the treatment of autism [2]: can be useful for the treatment of autism
usefulness for the treatment of mental retardation [2]: can be useful for the treatment of mental retardation
